Activity calls are given as the source filed them. No cut-off for these calls is given here.
Key:
[1] = target: Transmembrane protease serine 2 (Homo sapiens) (UniProt O15393); assay: Induction of downregulation of TMPRSS2 (unknown orgin) human LNCaP cells at 1 uM after 24 hrs by Western blot analysis
[2] = test system: LNCaP; assay: Induction of cell cycle arrest in human LNCaP cells assessed as accumulation at G1 phase at 1 micromol/L after 24 hrs by RNase A/PI-staining based flow cytometric analysis (reference value: 47.99%); type: functional; details: dose 1 µmol/L, at 1 µM
[3] = test system: LNCaP; assay: Induction of apoptosis in human LNCaP cells assessed as viable cells level at 10 micromol/L incubated for 24 hrs by Annexin V/PI staining staining based flow cytometry (reference value: 96.3%); type: functional; details: dose 10 µmol/L, at 10 µM
[4] = target: Prostate-specific antigen (Homo sapiens) (UniProt P07288); assay: Induction of downregulation of PSA (unknown orgin) human LNCaP cells at 10 uM after 24 hrs by Western blot analysis
Chain of Prostate-specific antigen (Homo sapiens) (P07288 whole entry, looked up): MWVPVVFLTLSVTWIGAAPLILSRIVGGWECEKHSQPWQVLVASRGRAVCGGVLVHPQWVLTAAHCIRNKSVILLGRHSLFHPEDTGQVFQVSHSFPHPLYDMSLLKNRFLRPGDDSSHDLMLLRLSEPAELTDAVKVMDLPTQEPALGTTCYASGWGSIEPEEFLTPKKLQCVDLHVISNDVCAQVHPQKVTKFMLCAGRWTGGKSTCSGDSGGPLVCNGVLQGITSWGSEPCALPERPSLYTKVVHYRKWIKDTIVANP

[5] = target: Prostate-specific antigen (Homo sapiens) (UniProt P07288); assay: Induction of downregulation of PSA (unknown orgin) human LNCaP cells at 1 uM after 24 hrs by Western blot analysis
[6] = test system: LNCaP; assay: Induction of apoptosis in human LNCaP cells assessed as necrotic cells level at 10 micromol/L incubated for 24 hrs by Annexin V/PI staining staining based flow cytometry (reference value: 0.694%); type: functional; details: dose 10 µmol/L, at 10 µM
[7] = test system: LNCaP; assay: Induction of cell cycle arrest in human LNCaP cells assessed as accumulation at G2 phase at 10 micromol/L after 24 hrs by RNase A/PI-staining based flow cytometric analysis (reference value: 20.87%); type: functional; details: dose 10 µmol/L, at 10 µM
[8] = target: T1, Androgen receptor (Homo sapiens) (UniProt P10275); assay: Selective androgen receptor degradation activity at androgen receptor in human LNCaP cells assessed as down regulation of protein level at 2 uM after 24 hrs by Western blot analysis; type: cell-based
T1 sequence (whole entry): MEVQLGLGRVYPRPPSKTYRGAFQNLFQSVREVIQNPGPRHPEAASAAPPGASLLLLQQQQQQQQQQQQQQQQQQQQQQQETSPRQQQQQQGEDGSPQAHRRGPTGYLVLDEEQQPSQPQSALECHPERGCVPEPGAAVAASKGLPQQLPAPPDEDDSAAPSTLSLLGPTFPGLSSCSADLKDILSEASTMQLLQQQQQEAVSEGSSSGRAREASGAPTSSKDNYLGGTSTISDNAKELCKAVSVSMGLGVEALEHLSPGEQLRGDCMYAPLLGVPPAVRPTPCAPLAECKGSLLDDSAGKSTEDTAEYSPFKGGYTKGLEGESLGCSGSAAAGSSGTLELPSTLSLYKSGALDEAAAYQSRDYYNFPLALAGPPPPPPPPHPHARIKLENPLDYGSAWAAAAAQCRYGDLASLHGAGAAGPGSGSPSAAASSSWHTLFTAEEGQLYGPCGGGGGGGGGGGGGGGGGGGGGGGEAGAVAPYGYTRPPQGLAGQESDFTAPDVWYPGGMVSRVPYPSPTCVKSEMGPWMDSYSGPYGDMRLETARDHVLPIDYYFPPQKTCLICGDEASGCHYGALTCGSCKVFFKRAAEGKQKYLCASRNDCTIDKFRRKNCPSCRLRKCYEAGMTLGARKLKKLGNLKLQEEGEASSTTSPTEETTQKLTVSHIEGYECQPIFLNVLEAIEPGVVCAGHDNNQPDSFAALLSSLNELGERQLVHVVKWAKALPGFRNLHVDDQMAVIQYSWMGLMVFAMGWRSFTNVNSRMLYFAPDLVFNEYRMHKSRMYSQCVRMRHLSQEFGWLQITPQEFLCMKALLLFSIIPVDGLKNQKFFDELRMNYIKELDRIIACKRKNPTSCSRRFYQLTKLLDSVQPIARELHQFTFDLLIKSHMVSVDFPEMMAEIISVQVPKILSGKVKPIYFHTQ

[9] = test system: LNCaP; assay: Induction of cell cycle arrest in human LNCaP cells assessed as accumulation at G2 phase at 2 micromol/L after 24 hrs by RNase A/PI-staining based flow cytometric analysis (reference value: 20.87%); type: functional; details: dose 2 µmol/L, at 2 µM
[10] = test system: LNCaP; assay: Induction of apoptosis in human LNCaP cells assessed as late cells level at 2 micromol/L incubated for 24 hrs by Annexin V/PI staining staining based flow cytometry (reference value: 0.940%); type: functional; details: dose 2 µmol/L, at 2 µM
[11] = test system: PC-3; assay: Antiproliferative activity against androgen-negative human PC-3 cells assessed as cell growth inhibition measured after 72 hrs by SRB assay; type: functional, cell-based; details: PC-3, 72 h
[12] = test system: LNCaP; assay: Induction of apoptosis in human LNCaP cells assessed as total apoptotic cells at 10 uM incubated for 24 hrs by Annexin V/PI staining staining based flow cytometry (reference value: 2.76%); type: functional
[13] = test system: LNCaP; assay: Induction of apoptosis in human LNCaP cells assessed as viable cells level at 2 micromol/L incubated for 24 hrs by Annexin V/PI staining staining based flow cytometry (reference value: 96.3%); type: functional; details: dose 2 µmol/L, at 2 µM
[14] = target: T1, Androgen receptor (Homo sapiens); assay: Binding affinity to androgen receptor LBD (unknown origin) at 10 uM incubated for 4 hrs under dark by fluorescence polarization based binding assay relative to R1881
[15] = test system: GES1; assay: Cytotoxicity against androgen-negative human GES1 cells assessed as cell growth inhibition measured after 72 hrs by SRB assay; type: cell-based; details: GES1, 72 h
[16] = test system: LNCaP C4-2B; assay: Antiproliferative activity against androgen-sensitive positive human LNCaP C4-2B cells assessed as cell growth inhibition measured after 72 hrs by SRB assay; type: functional, cell-based
[17] = target: Transmembrane protease serine 2 (Homo sapiens) (UniProt O15393); assay: Induction of downregulation of TMPRSS2 (unknown orgin) human LNCaP cells at 2 uM after 24 hrs by Western blot analysis
[18] = test system: LNCaP; assay: Induction of cell cycle arrest in human LNCaP cells assessed as accumulation at S phase at 10 micromol/L after 24 hrs by RNase A/PI-staining based flow cytometric analysis (reference value: 20.69%); type: functional; details: dose 10 µmol/L, at 10 µM
[19] = test system: LNCaP; assay: Induction of apoptosis in human LNCaP cells assessed as late apoptotic cells level at 1 micromol/L incubated for 24 hrs by Annexin V/PI staining staining based flow cytometry (reference value: 0.940%); type: functional; details: dose 1 µmol/L, at 1 µM
[20] = Cytotoxicity against androgen-negative human WPMY-1 cells assessed as cell growth inhibition measured after 72 hrs by SRB assay; type: cell-based; details: WPMY-1, 72 h
[21] = target: T1, Androgen receptor (Homo sapiens); assay: Selective androgen receptor degradation activity at androgen receptor in human LNCaP cells assessed as down regulation of protein level at 1 uM after 24 hrs by Western blot analysis; type: cell-based
[22] = target: T1, Androgen receptor (Homo sapiens); assay: Selective androgen receptor degradation activity at androgen receptor in human LNCaP cells assessed as down regulation of protein level at 10 uM after 24 hrs in presence of MG132 by Western blot analysis; type: cell-based
[23] = test system: LNCaP; assay: Induction of cell cycle arrest in human LNCaP cells assessed as accumulation at G2 phase at 1 micromol/L after 24 hrs by RNase A/PI-staining based flow cytometric analysis (reference value: 20.87%); type: functional; details: dose 1 µmol/L, at 1 µM
[24] = target: Transmembrane protease serine 2 (Homo sapiens) (UniProt O15393); assay: Induction of downregulation of TMPRSS2 (unknown orgin) human LNCaP cells at 10 uM after 24 hrs by Western blot analysis

Chain of Transmembrane protease serine 2 (Homo sapiens) (O15393 1-255 limits assumed): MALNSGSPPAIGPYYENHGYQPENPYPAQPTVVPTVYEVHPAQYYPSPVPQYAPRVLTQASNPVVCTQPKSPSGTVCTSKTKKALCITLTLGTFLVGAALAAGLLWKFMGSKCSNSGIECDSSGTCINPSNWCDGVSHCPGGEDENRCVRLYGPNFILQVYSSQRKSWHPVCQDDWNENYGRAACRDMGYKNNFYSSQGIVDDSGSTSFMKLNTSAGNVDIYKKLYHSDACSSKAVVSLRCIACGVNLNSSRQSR
Chain of Transmembrane protease serine 2 (Homo sapiens) (O15393 256-492 limits assumed): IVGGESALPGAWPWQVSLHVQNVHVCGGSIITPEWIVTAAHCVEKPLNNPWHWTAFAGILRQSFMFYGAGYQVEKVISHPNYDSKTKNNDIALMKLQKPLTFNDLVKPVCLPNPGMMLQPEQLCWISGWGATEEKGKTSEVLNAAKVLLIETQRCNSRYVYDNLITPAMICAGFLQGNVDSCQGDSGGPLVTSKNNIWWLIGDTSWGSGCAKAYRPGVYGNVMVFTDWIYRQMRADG

- Activity [1]: Active
- Activity [4]: Active
- Activity [5]: Active
- Activity [8]: Active
- IC50 [11]: > 80 µM
- Activity [14]: 85.3%
- IC50 [16]: 16.6 µM
- Activity [17]: Active
- Activity [21]: Active
- Activity [22]: Active
- Activity [24]: Active
SMILES: CC1(C)C(=O)N(c2ccc(C#N)c(C(F)(F)F)c2)C(=S)N1CCCCCn1cc(COCCOCCOC(=O)CC23CC4CC(CC(C4)C2)C3)nn1
- Activity [2]: 59.3%
- Activity [3]: 79%
- Activity [6]: 0.024%
- Activity [7]: 6.4%
- Activity [9]: 8.9%
- Activity [10]: 1.59%
- Activity [12]: 19.22%
- Activity [13]: 96.1%
- IC50 [15]: > 80 µM
- Activity [18]: 16.11%
- Activity [19]: 1.59%
- IC50 [20]: > 80 µM
- Activity [23]: 20.07%

Reference: ChEMBL document CHEMBL4706528, “The design, synthesis and anti-tumor mechanism study of new androgen receptor degrader” (Eur J Med Chem, 2020)
